# In the supplement of paper PMC6045584:
# ± gives the standard deviation of the averaged measurements.
# How the values were obtained:
# [1] = compound: CN(Cc1cnc2nc(N)nc(N)c2n1)c1ccc(C(=O)N[C@@H](CCC(=O)O)C(=O)O)cc1 [METHOTREXATE]; experiment: surviving fraction relative to DMSO-only wells; higher = less growth inhibition; conditions: exposure time: 5 days
# Method in brief: (§1)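 Luminescence normalised to the median of DMSO-only wells defines surviving fraction, with viability read by CellTiter-Glo. Signal was recorded after 10 minutes at room temperature, once log-phase tumour cell lines seeded at 250–500 cells per well in 384-well plates had spent 24 hours settling and then five days under continuous exposure to inhibitors at 0.5, 1, 5, 10, 50, 100, 500 and 1000 nM.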
# [2] = compound: NC1(c2ccc(-c3nc4ccn5c(=O)[nH]nc5c4cc3-c3ccccc3)cc2)CCC1 [MK2206]; experiment: as above; conditions: exposure time: 5 days
# Method in brief: as §1
Test System,surviving fraction ([1]; 0.5 nM),surviving fraction ([1]; 1 nM),surviving fraction ([1]; 5 nM),surviving fraction ([1]; 10 nM),surviving fraction ([1]; 50 nM),surviving fraction ([1]; 100 nM),surviving fraction ([1]; 500 nM),surviving fraction ([1]; 1000 nM),surviving fraction ([2]; 0.5 nM),surviving fraction ([2]; 1 nM),surviving fraction ([2]; 5 nM),surviving fraction ([2]; 10 nM),surviving fraction ([2]; 50 nM),surviving fraction ([2]; 100 nM),surviving fraction ([2]; 500 nM),surviving fraction ([2]; 1000 nM)
MDAMB231 BREAST,0.982 ± 0.023,0.967 ± 0.02,0.988 ± 0.026,0.986 ± 0.026,1.02 ± 0.02,1.01 ± 0.044,0.811 ± 0.017,0.509 ± 0.015,0.954 ± 0.019,1.006 ± 0.0089,0.976 ± 0.021,0.972 ± 0.024,0.903 ± 0.027,0.934 ± 0.033,0.869 ± 0.027,0.856 ± 0.011
MDAMB361 BREAST,0.85 ± 0.13,0.853 ± 0.073,0.8 ± 0.015,0.889 ± 0.062,0.947 ± 0.082,0.879 ± 0.037,0.74 ± 0.045,0.735 ± 0.075,0.985 ± 0.072,0.922 ± 0.076,0.826 ± 0.1,0.841 ± 0.031,0.768 ± 0.11,0.608 ± 0.019,0.353 ± 0.024,0.34 ± 0.026
MDAMB436 BREAST,0.955 ± 0.13,0.977 ± 0.091,0.963 ± 0.12,0.857 ± 0.024,0.677 ± 0.096,0.609 ± 0.057,0.65 ± 0.14,0.687 ± 0.083,1.02 ± 0.14,0.932 ± 0.087,0.954 ± 0.023,0.957 ± 0.068,0.928 ± 0.023,0.924 ± 0.11,0.828 ± 0.14,0.734 ± 0.088
MDAMB453 BREAST,1.04 ± 0.088,1.06 ± 0.025,1.12 ± 0.068,1.04 ± 0.038,0.966 ± 0.024,0.757 ± 0.028,0.655 ± 0.039,0.66 ± 0.018,1.1 ± 0.093,1.08 ± 0.039,1.11 ± 0.041,1.15 ± 0.035,1.12 ± 0.072,0.846 ± 0.013,0.327 ± 0.054,0.266 ± 0.019
MDAMB468 BREAST,1.12 ± 0.046,1.09 ± 0.072,1.11 ± 0.042,1.12 ± 0.025,0.263 ± 0.015,0.083 ± 0.0027,0.0627 ± 0.0057,0.065 ± 0.001,1.07 ± 0.052,1.1 ± 0.076,1.1 ± 0.067,1.09 ± 0.052,0.966 ± 0.06,0.939 ± 0.073,0.666 ± 0.0078,0.595 ± 0.014
MFM223 BREAST,1.18 ± 0.11,1.3 ± 0.3,1.35 ± 0.41,1.41 ± 0.43,1.09 ± 0.096,0.98 ± 0.046,1.04 ± 0.035,1.01 ± 0.018,1.14 ± 0.047,1.12 ± 0.014,1.06 ± 0.038,1.14 ± 0.16,0.793 ± 0.077,0.661 ± 0.087,0.314 ± 0.053,0.224 ± 0.011
MG63 BONE,1.05 ± 0.051,1.07 ± 0.047,1.11 ± 0.042,1.1 ± 0.052,0.364 ± 0.016,0.197 ± 0.0027,0.178 ± 0.01,0.17 ± 0.0082,0.987 ± 0.01,1.06 ± 0.049,1.04 ± 0.03,1.09 ± 0.047,0.95 ± 0.016,0.961 ± 0.03,0.793 ± 0.019,0.748 ± 0.017
MHM BONE,1.02 ± 0.036,1.04 ± 0.044,1.05 ± 0.078,1.06 ± 0.038,0.784 ± 0.016,0.723 ± 0.04,0.689 ± 0.019,0.699 ± 0.01,0.981 ± 0.021,0.9797 ± 0.0065,1.01 ± 0.024,1.05 ± 0.027,0.963 ± 0.035,0.959 ± 0.026,0.89 ± 0.04,0.8973 ± 0.0085
